Literature values, collected in EP4437048B1, “ENERGY CURABLE INK, COATING AND PRIMER COMPOSITIONS CONTAINING HIGHLY ALKOXYLATED GLYCEROL ACRYLATES FOR RETORT PACKAGING APPLICATIONS” (Sun Chemical B.V., priority 2022, dated 2024).

Details: specific migration limit of the acrylate (Table 7)

SMILES: C=CC(=O)OCC(CC)(COCC(CC)(COC(=O)C=C)COC(=O)C=C)COC(=O)C=C [Di-TMPTA]
- SML: 10 ppb
